# From paper PMC6923382, “Small molecules that inhibit TNF signalling by stabilising an asymmetric form of the trimer” (Nature Communications, 2019)
# Where two headings read alike, the source gives them in different places.
# Legend:
# [1] = Blood exposure of UCB-9260 in the mouse models; type: in vivo; conditions: mouse, blood
# [2] = system: TNFR1 signalling complex (RIP-1, pNF-κB); experiment: TNFR1 immunoprecipitation and signalling assay (Jurkat cells); type: cell-based, human; conditions: 10 µM compound pre-incubated 1 h with TNF 25 ng/mL, Western blot
# Protocol: Cells were then lysed for 1 h in cold lysis buffer (1% NP-40, 150 mM NaCl, 50 mM Tris pH 8.0, 25 mM NaF, 1 mM vanadate, 1% phosphatase inhibitor and 0.2% protease inhibitor cocktail), and cell supernatant harvested. TNFR1 immunoprecipitation was performed by incubating supernatant with 5 µg anti-TNFR1 antibody (R&D systems, #AB-225-PB) overnight while rotating at 4 °C, followed by the addition of 20 µL protein G sepharose beads for 1 h rotating at 4 °C. An isotype control sample was incubated with 5 µg goat IgG, instead of anti-TNFR1 antibody to assess how much unspecific binding to the beads occurs during immunoprecipitation. Beads were subsequently washed 3× in lysis buffer, and then the supernatant removed and SDS-PAGE reducing sample buffer added to beads and samples boiled for 10 min. Sample (15 µL) was then loaded on a 4–12% Bis-Tris gel and run for 65 min at 200 V in MOPS buffer. […] RIP-1 ubiquitination (1:250 dilution, BD, #610459) was then detected by Western blotting using anti-mouse-HRP (1:2000 dilution, Cell Signalling Technology, #7076). pNFκB (1:1000 dilution, Cell Signalling Technology, #3033) and GAPDH (1:4000 dilution, Cell Signalling Technology, #5174) were measured in the total cell lysates by Western blotting using anti-rabbit HRP (1:2000 dilution, Cell Signalling Technology, #7074). […]
smiles,measurement,setting,value
Cc1ccc(C)c(Cn2c(C(O)c3ccncc3)nc3ccc(-c4cnn(C)c4)cc32)c1 (stereo not shown) [UCB-9260],concentration at 0.5 h,"[1]; Balb/c, oral, 10 mg/kg, mouse TNF neutrophilia model, individual mice, read-out: Free exposure",35.9 nM
same,concentration at 0.5 h,"[1]; Balb/c, oral, 30 mg/kg, 30 mg/kg p.o., mouse TNF neutrophilia model, Fu 2.4%, read-out: Blood concentration 0.5h post dose (free)",225 ± 23 nM
same,concentration at 0.5 h,"[1]; Balb/c, oral, 30 mg/kg, 30 mg/kg p.o., mouse TNF neutrophilia model, mean n=3 ± s.e.m., read-out: Blood concentration 0.5h post dose total",9360 nM
same,concentration at 0.5 h,"[1]; Balb/c, oral, 30 mg/kg, mouse TNF neutrophilia model, individual mice, 0.5h post dose, read-out: Total exposure",9980 nM
same,concentration at 0.5 h,"[1]; Balb/c, oral, 30 mg/kg, mouse TNF neutrophilia model, individual mice, read-out: Free exposure",254 nM
same,concentration at 0.5 h,"[1]; Balb/c, oral, 100 mg/kg, 100 mg/kg p.o., human TNF neutrophilia model, Fu 2.4%, read-out: Blood concentration 0.5h post dose (free)",716 ± 93 nM
same,concentration at 0.5 h,"[1]; Balb/c, oral, 100 mg/kg, 100 mg/kg p.o., human TNF neutrophilia model, mean n=3 ± s.e.m., read-out: Blood concentration 0.5h post dose total",29800 nM
same,concentration at 0.5 h,"[1]; Balb/c, oral, 100 mg/kg, 100 mg/kg p.o., mouse TNF neutrophilia model, Fu 2.4%, read-out: Blood concentration 0.5h post dose (free)",1350 nM
same,concentration at 0.5 h,"[1]; Balb/c, oral, 100 mg/kg, 100 mg/kg p.o., mouse TNF neutrophilia model, mean ± s.e.m., read-out: Blood concentration 0.5h post dose total",56100 nM
same,concentration at 0.5 h,"[1]; Balb/c, oral, 100 mg/kg, human TNF neutrophilia model, individual mice, 0.5h post dose, read-out: Total exposure",29100 nM
same,concentration at 0.5 h,"[1]; Balb/c, oral, 100 mg/kg, human TNF neutrophilia model, individual mice, read-out: Free exposure",886 nM
same,concentration at 0.5 h,"[1]; Balb/c, oral, 300 mg/kg, 300 mg/kg p.o., human TNF neutrophilia model, Fu 2.4%, read-out: Blood concentration 0.5h post dose (free)",1190 nM
same,concentration at 0.5 h,"[1]; Balb/c, oral, 300 mg/kg, 300 mg/kg p.o., human TNF neutrophilia model, mean n=3 ± s.e.m., read-out: Blood concentration 0.5h post dose total",49500 nM
same,concentration at 0.5 h,"[1]; Balb/c, oral, 300 mg/kg, 300 mg/kg p.o., mouse TNF neutrophilia model, Fu 2.4%, read-out: Blood concentration 0.5h post dose (free)",1270 nM
same,concentration at 0.5 h,"[1]; Balb/c, oral, 300 mg/kg, 300 mg/kg p.o., mouse TNF neutrophilia model, mean n=3 ± s.e.m., read-out: Blood concentration 0.5h post dose total",53000 nM
same,concentration at 0.5 h,"[1]; Balb/c, oral, 300 mg/kg, human TNF neutrophilia model, individual mice, 0.5h post dose, read-out: Total exposure",41500 nM
same,concentration at 0.5 h,"[1]; Balb/c, oral, 300 mg/kg, human TNF neutrophilia model, individual mice, read-out: Free exposure",1190 nM
same,concentration at 0.5 h,"[1]; Balb/c, oral, 300 mg/kg, mouse TNF neutrophilia model, individual mice, 0.5h post dose, read-out: Total exposure",63000 nM
same,concentration at 0.5 h,"[1]; Balb/c, oral, 300 mg/kg, mouse TNF neutrophilia model, individual mice, read-out: Free exposure",1170 nM
same,concentration at 1 h,"[1]; male, Balb/c, oral, 10 mg/kg, 10 mg/kg p.o., zymosan model, Fu 2.4%, read-out: Blood concentration 1h post dose (free)",2 ± 0.4 nM
same,concentration at 1 h,"[1]; male, Balb/c, oral, 10 mg/kg, 10 mg/kg p.o., zymosan model, mean n=8 ± s.e.m., read-out: Blood concentration 1h post dose (total)",86 ± 15 nM
same,concentration at 1 h,"[1]; male, Balb/c, oral, 30 mg/kg, 30 mg/kg p.o., zymosan model, Fu 2.4%, read-out: Blood concentration 1h post dose (free)",70 ± 7 nM
same,concentration at 1 h,"[1]; male, Balb/c, oral, 30 mg/kg, 30 mg/kg p.o., zymosan model, mean n=8 ± s.e.m., read-out: Blood concentration 1h post dose (total)",2900 nM
same,concentration at 1 h,"[1]; male, Balb/c, oral, 30 mg/kg, zymosan model, individual mice, read-out: free exposure 1h post dose",46.8 nM
same,concentration at 1 h,"[1]; male, Balb/c, oral, 30 mg/kg, zymosan model, individual mice, read-out: total exposure 1h post dose",1950 nM
same,concentration at 1 h,"[1]; male, Balb/c, oral, 100 mg/kg, 100 mg/kg p.o., zymosan model, Fu 2.4%, read-out: Blood concentration 1h post dose (free)",630 ± 98 nM
same,concentration at 1 h,"[1]; male, Balb/c, oral, 100 mg/kg, 100 mg/kg p.o., zymosan model, mean n=8 ± s.e.m., read-out: Blood concentration 1h post dose (total)",26300 nM
same,concentration at 1 h,"[1]; male, Balb/c, oral, 300 mg/kg, 300 mg/kg p.o., zymosan model, Fu 2.4%, read-out: Blood concentration 1h post dose (free)",677 ± 121 nM
same,concentration at 1 h,"[1]; male, Balb/c, oral, 300 mg/kg, 300 mg/kg p.o., zymosan model, mean n=8 ± s.e.m., read-out: Blood concentration 1h post dose (total)",28200 nM
same,concentration at 1 h,"[1]; 150 mg/kg, 150 mg/kg B.I.D., CAIA model, mean ± s.e.m., read-out: Blood concentration total, 1h post dose",17300 nM
same,concentration at 6 h,"[1]; 150 mg/kg, 150 mg/kg B.I.D., CAIA model, mean ± s.e.m., read-out: Blood concentration total, 6h post dose",9970 nM
same,concentration at 1 h,"[1]; 150 mg/kg, 150 mg/kg B.I.D., CAIA model, read-out: Blood concentration (free), 1h post dose",415 ± 100 nM
same,concentration at 6 h,"[1]; 150 mg/kg, 150 mg/kg B.I.D., CAIA model, read-out: Blood concentration (free), 6h post dose",239 ± 101 nM
same,concentration at 0.5 h,"[1]; oral, 10 mg/kg, 10 mg/kg p.o., human TNF neutrophilia model, Fu 2.4%, read-out: Blood concentration 0.5h post dose (free)",20 ± 4 nM
same,concentration at 0.5 h,"[1]; oral, 30 mg/kg, 30 mg/kg p.o., human TNF neutrophilia model, Fu 2.4%, read-out: Blood concentration 0.5h post dose (free)",203 ± 59 nM
same,concentration at 0.5 h,"[1]; oral, 30 mg/kg, 30 mg/kg p.o., human TNF neutrophilia model, mean n=3 ± s.e.m., read-out: Blood concentration 0.5h post dose total",8460 nM
same,RIP recruitment to TNFR signalling complex and phosphorylation of NF-κB,[2],markedly reduced
